Measured values as given in US20170138946A1, “BIOMARKERS FOR RESPONSE TO EZH2 INHIBITORS” (Memorial Sloan-Kettering Cancer Center, priority 2014, published 2017).

Legend:
BAP1-mutant cells = assay: Matrigel invasion assay with GSK126; assay type: cell-based, human; conditions: GSK126 0-2 μM for 7 days
Experimental: Mesothelioma cells (MSTO-211H, H2373, H226 and H2452) were seeded in T75 flasks (100,000 cells). 12 hours later the plated cells were treated with GSK126 (0-2 μM) (Chemitek) and then left to proliferate for 7 days. 250,000 treated cells were then placed on the top of a Matrigel invasion chamber (BD Biosciences, cat no. 354480) in serum free media while the lower chamber contained media with serum. 22 hours later the cells on the bottom of the membrane were stained with crystal violet and quantitated with ImageJ.

[1] = system: E-Cadherin expression in H226; assay: E-Cadherin expression after GSK126 treatment; assay type: cell-based, human; conditions: cell line H226
Description: (§1) FIG. 20A-D. BAP1 mutant cell lines are most sensitive to EZH2 inhibition. (a) Meso10 cell line overexpressing EZH2 increasingly proliferated after injection into the flank of NOD-SCID mice. (b) EZH2 was overexpressed in MSTO-211H and Meso10 cell lines. […] (c) BAP1-mutant cells became less invasive when treated with the EZH2 inhibitor GSK126. (d) E-Cadherin expression increased in the cell line H226 following treatment with GSK126.

[2] = system: BAP1-mutant mesothelioma cells (H2452 xenografts); assay: H2452 xenografts in NOD-SCID mice treated with GSK126; assay type: in vivo
Experimental: FIG. 21A-C. BAP1-mutant mesothelioma cell lines and xenograft models are sensitive to EZH2 inhibition. (a) Tumor volume of H2452 xenografts treated daily with GSK126 at 150 mg/kg or vehicle (n=10 mice per group). 5 mice from each group were euthanized following 16 days of treatment to assess H3K27me3 depletion. The remaining mice were treated for the remainder of the trial. (b) Histone ELISA and Western blot analysis of H3K27me3 levels in tumors from in vivo treated mice after 16 days treatment. (c) H&E staining, Ki67 staining and TUNEL staining of tumors extracted from vehicle treated and GSK126 treated mice, 10× magnification.
Next, whether EZH2 inhibition might inhibit the survival of BAP1-mutant mesothelioma cell lines was assessed. EZH2 silencing induced apoptosis in BAP1-mutant cell lines, whereas wild-type cell lines continued to proliferate (FIGS. 16B,C). EZH2 silencing abrogated in vivo tumor formation of BAP1-mutant but not wild-type cell lines (FIG. 16D). Overexpression of EZH2 in BAP1 wild-type cell lines increased proliferation (FIG. 20A) and sensitivity to EZH2 inhibition (FIG. 20B). […] Next, the impact of EZH2 inhibition in vivo was assessed. […] EZH2 inhibition abrogated pulmonary metastasis in a BAP1-mutant mesothelioma cell line with metastatic potential (FIG. 16G) consistent with a role for BAP1/EZH2 in metastasis (Harbour et al., 2010). EZH2 inhibition reduced invasion and increased E-Cadherin expression in vitro (FIGS. 20C-D). Next, the impact of EZH2 inhibition using the […] GSK126 was assessed. BAP1-mutant mesothelioma cells were injected into the flank of NOD-SCID mice, and then initiated treatment with either vehicle or 150 mg/kg GSK126 after tumor formation.

Bap1 KO mice = Bap1 KO mice treated with EPZ011989 (genetic Bap1 KO trial); assay type: in vivo; conditions: 500 mg/kg BID orally for 16 days
Description: FIG. 11A-K. Proliferation induced by Bap1 deletion is rescued by loss of Ezh2. (a) Western blot of H3K27me3 levels in histones purified from bone marrow of Bap1 KO, Ezh2 KO, Bap1/Ezh2 KO and control mice. (b) Representative images of spleens and (c) enumeration of spleen weight from the indicated genotypes of mice, 3 weeks post pIpC. (d) Peripheral white blood cell counts and (e) hematocrit percentages as quantified by a Hemavet. (f) Flow cytometric enumeration of myeloid progenitors (Lin^− c-Kit^+Sca1^−) and (g) Mature myeloid cells (Mac1^+Gr1^+) (h) Cell cycle analyses in myeloid progenitors using Ki67 and DAPI stain (n=3/group) (i) Western blot for H3K27me3 levels in mice (n=5/group) treated with EPZ011989 twice a day at 500 mg/kg for 16 days. (j) Spleen weights and (k) white blood cell counts after treatment. Unless otherwise indicated, […], n=5/Ezh2 KO, n=8/Bap1 KO, and n=11/Bap1/Ezh2 KO, Statistics were calculated with Student t-test; *p<0.05, **p<0.005; ±SEM values reported. Groups of 10 week old NOD-SCID mice were injected subcutaneously in the flank with 6-10×10^6 mesothelioma cell lines (MSTO-211H, Meso10, H226 and H2452) in a 1:1 mixture of matrigel and media. When tumors reached a size of approximately 60-80 mm^3, treatment with either vehicle (0.5% NaCMC+0.1% Tween-80 in water) or EPZ011989 was initiated. Either EPZ011989 or vehicle were given orally BID at a concentration of 500 mg/kg for the duration of the experiment. Tumor volumes were assessed in three dimensions using a caliper. Tumors or lung tissue were extracted following treatment and utilized for Western blotting to assess target inhibition. […] Researchers were not blinded in these experiments.

BAP1-mutant cell lines [3] = assay: 2D Cell Titer Glo viability assay with EPZ011989; assay type: cell-based, human; conditions: 2 week treatment at 1.25 μM, compared with wild-type cell lines
Description: (§2) FIG. 16A-H. BAP1-mutant mesothelioma cell lines and xenograft models are sensitive to EZH2 inhibition. (a) Expression of EZH2 transcripts in TCGA mesothelioma patients compared to matched normals. (b) Annexin V assays in BAP1 wild-type and mutant cell lines expressing either empty vector or hairpins targeting EZH2. (c) Quantitation of Annexin V experiments in mesothelioma cell lines (d) Tumor size of Meso10 and H226 cell lines expressing EZH2 hairpins implanted into NOD-SCID mice, n=6/group. (e) 2D Cell Titer Glo viability assays after 2 week treatment with EPZ011989 at 1.25 μM. (f) 3D Cell Titer Glo viability assays after 3 weeks EPZ011989 treatment at 1.25 μM. (g) Tumor size formation from BAP1 mutant (MSTO and Meso10) or (h) wild-type cells (H226 and H2452) implanted into NOD-SCID mice and treated with either vehicle or 500 mg/kg BID EPZ011989. Tumors were measured 3× weekly, n=6/group. Target inhibition was assessed by histone western blots in extracted tumors (shown in respective figures). Lung pathology of H2452 cells with vehicle and EPZ1011989 treatment. Arrow indicates bulk metastasized tumor. Statistics were calculated with Student t-test; *p<0.05, **p<0.005; ±SEM values reported.

BAP1-mutant cell lines [4] = assay: 3D Cell Titer Glo viability assay with EPZ011989; assay type: cell-based, human; conditions: 3 weeks treatment at 1.25 μM, compared with wild-type cell lines
Description: as §2

BAP1-mutant tumor = assay: Mesothelioma xenografts in NOD-SCID mice treated with EPZ011989, BAP1-mutant tumors; assay type: in vivo; conditions: 500 mg/kg BID
Description: as §2, with “(g) Tumor size formation from BAP1 mutant (MSTO and Meso10) or (h) wild-type cells (H226 and H2452) implanted into NOD-SCID mice and treated with either vehicle or 500 mg/kg BID EPZ011989.” left out
(§3) Groups of 10 week old NOD-SCID mice were injected subcutaneously in the flank with 6-10×10^6 mesothelioma cell lines (MSTO-211H, Meso10, H226 and H2452) in a 1:1 mixture of matrigel and media. […] Tumor volumes were assessed in three dimensions using a caliper. […]

wild-type tumors = assay: Mesothelioma xenografts in NOD-SCID mice treated with EPZ011989, BAP1 wild-type tumors; assay type: in vivo; conditions: 500 mg/kg BID
Description: as §2, with “Lung pathology of H2452 cells with vehicle and EPZ1011989 treatment. Arrow indicates bulk metastasized tumor.” left out
as §3

[5] = system: MSTO-211H and Meso10 cell lines overexpressing EZH2; assay: Sensitivity to EPZ011989 of cell lines overexpressing EZH2; assay type: cell-based, human; conditions: MSTO-211H and Meso10 overexpressing EZH2
Description: as §1

[6] = tumors extracted from treated mice, 150 mg/kg

Question: With `CC[C@H](C)n1cc(C)c2c(C(=O)NCc3c(C)cc(C)[nH]c3=O)cc(-c3ccc(N4CCNCC4)nc3)cc21` [GSK126] as the compound, how does the invasion (BAP1-mutant cells) read?
Answer: less invasive

Question: What about the E-Cadherin expression [1] of the same compound?
Answer: increased

Question: And the tumor size ([2]; 150 mg/kg daily, compared to vehicle treated mice)?
Answer: significantly reduced

Question: And the “H3K27me3 in tumors in vivo” value ([2]; 150 mg/kg, after 16 days treatment, histone ELISA and Western blot)?
Answer: significantly attenuated

Question: What about the Ki67 staining [2, 6] of the same compound?
Answer: reduced

Question: What about the TUNEL staining [2, 6] of the same compound?
Answer: increased

Question: What does the source list for `CCN(c1cc(C#CCN2CCOCC2)cc(C(=O)NCc2c(C)cc(C)[nH]c2=O)c1C)[C@H]1CC[C@H](N(C)CCOC)CC1` [EPZ011989]?
Answer: splenomegaly (spleen weights) (Bap1 KO mice): decreased; white blood cell counts (Bap1 KO mice): decreased; H3K27me3 (Bap1 KO mice; Western blot): decreased; sensitivity of BAP1-mutant cell lines in 2D culture (BAP1-mutant cell lines [3]): more sensitive; sensitivity of BAP1-mutant cell lines in 3D culture (BAP1-mutant cell lines [4]): more sensitive; BAP1-mutant tumor size (BAP1-mutant tumor; compared to vehicle treated mice): significantly reduced; pulmonary metastasis (BAP1-mutant tumor; BAP1-mutant mesothelioma cell line with metastatic potential (H2452)): abrogated; response of wild-type tumors (tumor size) (wild-type tumors): less/not responsive; sensitivity with EZH2 overexpression [5]: increasingly sensitive
